PubChem BioAssay (NCI)
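Cells were grown in 96-well plates and exposed to each compound for 48 hours at five concentrations; endpoints were interpolated linearly between bracketing concentrations, or set to the highest concentration if not reached. Here, GI50 denotes the concentration required for 50% inhibition of growth. TGI marks complete inhibition of growth.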

Tests used:
Assay in all cases: growth of human tumour cells (NCI), 48 h
[1] = tested on: CAKI-1 renal
[2] = tested on: HOP-92 NSCLC
[3] = tested on: NCI-H23 lung
[4] = tested on: NCI-H226 lung
[5] = tested on: SNB-75 CNS
[6] = tested on: SF-268 CNS
[7] = tested on: SK-OV-3 ovarian
[8] = tested on: MDA-MB-435
[9] = tested on: DU-145 prostate
[10] = tested on: LOX IMVI melanoma

SMILES | GI50 [1] [µM] | TGI [1] [µM] | GI50 [2] [µM] | TGI [2] [µM] | GI50 [3] [µM] | TGI [3] [µM] | GI50 [4] [µM] | TGI [4] [µM] | GI50 [5] [µM] | TGI [5] [µM] | GI50 [6] [µM] | TGI [6] [µM] | GI50 [7] [µM] | TGI [7] [µM] | GI50 [8] [µM] | TGI [8] [µM] | GI50 [9] [µM] | TGI [9] [µM] | GI50 [10] [µM] | TGI [10] [µM]
COc1ccc(-c2nc(N)c(C#N)c3c2CCOc2c-3ccc3ccccc23)cc1 | 3.32 | 19.6 | 11.8 | 37.9 | 19.4 | 61.9 | 18 | 58.2 | > 100 | > 100 | 11.1 | 39.8 | 17.4 | 55 | 46.6 | > 100 |  |  |  | 
O=C(/C=C\n1cnc(-c2cc(C(F)(F)F)cc(C(F)(F)F)c2)n1)N1CC(F)(F)C1 | 0.288 | 6.84 | 0.0288 | 4.37 | 0.391 | 5.61 |  |  | 0.432 | 6.44 | 0.254 | 2.48 | 1.08 | > 25 | 1.4 | 6.38 | 1.69 | 12.1 | 0.357 | 3.45
CCC(=O)C(C(=O)CC)c1c(OC(=O)c2ccccc2)ccc(O)c1C(=O)OC |  | > 100 |  | > 100 |  | > 100 |  | > 100 |  | > 100 |  | > 100 |  | > 100 |  |  |  |  |  | > 100
C/C(CC(=O)Nc1ccc(NC(=O)C/C(C)=N\NC(N)=O)cc1)=N/NC(N)=O |  | > 100 |  | > 100 |  | > 100 |  | > 100 |  | > 100 |  | > 100 |  | > 100 |  |  |  |  |  | > 60.1
Cc1ccc(O)c(NC2=C(Cl)C(=O)N(Cc3ccccc3)C2=O)c1 | 27.5 | 82.3 |  |  | 25.8 | 68.6 | 15 | 37.3 |  |  | 18.8 | 47.1 | 80.5 | > 100 | 28.4 | 76.1 | 27.8 | 95.9 | 20.3 | 45.7
CC1(C)C(=O)C(=Cc2ccco2)C1=O |  | > 100 |  | > 100 |  | > 100 |  | > 100 |  | > 100 |  | > 100 |  | > 100 |  |  |  |  |  | > 100
CCC(C)(O)c1cn(-c2ccc(S(=O)(=O)O)cc2)nn1 (stereo not given) |  | > 100 |  | > 100 |  | > 100 |  | > 100 |  | > 100 |  | > 100 |  | > 100 |  |  |  |  |  | > 100
COc1cc(NC(C)CCCNC(C)C)c2ncccc2c1OC (stereo not given) | > 100 | > 100 |  |  | > 100 | > 100 | > 100 | > 100 | 20.5 | > 100 | > 100 | > 100 | > 100 | > 100 | 54.6 | > 100 | > 100 | > 100 | > 100 | > 100
c1cc[c]([Sn]([O]c2cccc3cccnc23)([O]c2cccc3cccnc23)[c]2ccccc2)cc1 | 0.179 | 0.383 |  |  | 0.209 | 0.5 |  |  | 0.419 | 1.45 | 0.41 | 1.5 | 1.83 | 3.24 |  |  |  |  | 0.198 | 0.424
O=c1c2cccnc2ncn1CCCN1CCCC1 |  | > 100 |  | > 100 |  | > 100 |  | > 100 |  | > 100 |  | > 100 |  | > 100 |  |  |  |  |  | > 100
COc1ccc2c(c1)[n+](=O)c(C(=O)CC(=O)C(=O)Nc1cccc(C)c1C)c(C)n2[O-] |  | > 100 |  | > 100 |  | > 100 |  | > 100 |  |  |  | > 100 |  | > 100 |  |  |  |  |  | > 100
COc1cc2c3c(c1OC)C(=O)C=C3N(S(=O)(=O)c1ccc(C)cc1)CC2 |  | > 100 |  | > 100 |  | > 100 |  | > 100 |  | > 100 |  | > 100 |  | > 100 |  |  |  |  |  | > 100
O=C(NC(=O)c1cn(CCN2CCN(C(=O)NCCCCCCNC(=O)N3CCN(CCn4cc(C(=O)NC(=O)OCc5ccccc5)c(=O)[nH]c4=O)CC3)CC2)c(=O)[nH]c1=O)OCc1ccccc1 |  | > 100 |  | > 100 |  | > 100 |  |  |  | > 100 |  |  |  | > 100 |  |  |  |  |  | > 100
CC12OC(C(=O)C13CCC3)C1C(=O)c3ccc4c(ccc5ccccc54)c3C(=O)C12 (stereo not given) | 1.42 | 12.7 | 5.02 | 21.2 | 10.5 | 23.6 |  |  | 18.1 | 37.7 | 11.6 | 32.9 | 26.5 | 80.5 | 12.8 | 30.3 |  |  |  | 
COC(=O)/C(=C/c1ccc(OC)cc1)C(C(=O)O)=C1CCCCC1 |  | > 100 |  | > 100 |  | > 100 |  | > 100 |  | > 100 |  |  |  | > 100 |  |  |  |  |  | > 100
CCN(CC)c1ccc2nc3ccc(N=Nc4ccc(O)cc4)cc3[n+](-c3ccccc3)c2c1 | 10.1 | > 100 | > 100 | > 100 | 3.75 | 40.3 | 11.4 | 23.6 | 10 | 21.9 | 5 | > 100 | 35.7 | > 100 |  |  | 4.68 | 16.7 | 2.85 | 17.3
C=C(CO)CC(/C=C(\C)CC/C=C(\C)CCl)OC(C)=O (stereo not given) |  |  |  | > 100 |  | > 100 |  | > 100 |  | > 100 |  | > 100 |  | > 100 |  |  |  |  |  | > 100
C1CC2=C(C1)C1=S(S2)SC2=C1CCC2 |  | > 100 |  | > 100 |  | > 100 |  | > 100 |  | > 100 |  | > 100 |  | > 100 |  |  |  |  |  | > 100
O=c1[nH]c(=O)n(C2CC(O)C(CO)O2)cc1COCC(F)(F)F (stereo not given) |  | > 100 |  | > 100 |  | > 100 |  |  |  | > 100 |  | > 100 |  | > 100 |  |  |  |  |  | > 100
CC(C)C(=S)N(C)O |  | > 100 |  | > 100 |  | > 100 |  | > 100 |  | > 100 |  | > 100 |  | > 100 |  |  |  |  |  | 62.5
